In EP0490581B1, “Cosmetic composition” (UNILEVER PLC, priority 1990, dated 1992):

Tested on: isolated human hair follicles
Test: in vitro hair follicle growth test (elongation of isolated hair follicles in culture medium)
Assay type: cell-based
Description: The effect of compounds on hair growth was assessed using an in vitro test which measures the elongation of isolated human hair follicles in a culture medium.
This test includes the important step of isolating hair follicles having an undamaged hair bulb from skin, preferably from human skin, by microdissection.
The critical step of separating the hair follicle with intact undamaged hair bulb from the subcutaneous fatty tissue in which it is situated accordingly involves severing the hair shaft of the follicle at a point below the epidermis of skin surface, so as to leave the hair bulb intact and undamaged while still bearing a portion of the hair shaft.
Preferably, the hair shaft of the follicle is severed at the dermal-subcutaneous fat interface.
Any suitable cutting instrument can be employed to sever the hair shaft in this manner, but a keratotome or a scalpel are preferred.
The hair bulb with a hair shaft stump attached is then isolated from the skin by mechanically separating the hair from loosely adhering subcutaneous fat which normally surrounds the hair bulb. This is achieved after the dermis or upper layer of the skin has been separated and removed, to avoid damaging the hair bulb as it is pulled away.
The hair bulb together with hair shaft stump attached, is then transferred in an otherwise undamaged and fully functioning, viable state to a nutrient medium.
The hair follicles isolated by the technique described herein are transferred to a suitable culture medium for subsequent testing of substances that can then influence their future development.
The procedure now to be described represents a preferred method of culture and testing of hair growth.
In accordance with the preferred method of culture, isolated hair follicles are maintained in 500µl of Williams E medium, either with or without a test hair growth substance, at 37°C in an atmosphere of 5% CO₂ + 95% air in individual wells of a 24 multiwell dish (Corning), which permits detailed measurements to be made of the length of individual hair follicles.
Williams E medium is available from FLOW Laboratory under Catalogue No. 12-502. The formula of Williams E medium is described by Williams GM, et al., in Experimental Cell Research 69 (1971) on page 106.
Hair shaft length measurements can be made on these follicles, using a Nikon Diaphot inverted binocular or similar microscope with eye piece measuring graticules, […], during which time the follicles will signficiantly increase in length in response to a hair growth stimulant.
The response of an isolated hair follicle to a test substance, can accordingly be assessed by mesuring the increase in length, if any, in the presence of a test substance against a control. […]

NC(=O)CC[C@H](N)C(=O)O [Glutamine, glutamine]
activity at 2000 µM (144 h, 2mM in Williams E medium supplemented with glucose (50mM), relative to a control value of 1.0, mean of 5 follicles from each of 5 human subjects (25 follicles), read-out: Hair follicle growth after 6 days): 400%
hair growth, as compared with the control (summary in words of the table's results, Williams E medium supplemented with glucose (50mM)): most effective

CC(O)CC(=O)O (stereo not shown) [Na 3-hydroxybutyrate]
activity at 1000 µM (144 h, 1 mM in Williams E medium supplemented with glucose (50mM), relative to a control value of 1.0, mean of 5 follicles from each of 5 human subjects (25 follicles), read-out: Hair follicle growth after 6 days): 280%

CCCCCCCCCCCCCCCC(=O)O [Na palmitate]
activity at 500 µM (144 h, 0.5mM in Williams E medium supplemented with glucose (50mM), relative to a control value of 1.0, mean of 5 follicles from each of 5 human subjects (25 follicles), read-out: Hair follicle growth after 6 days): 180%
